Data published in US20260070945A1, “MACROCYCLIC IMMUNOMODULATORS” (Bristol-Myers Squibb Company, priority 2022, published 2026).
Where a SMILES comes first, the peptide text is derived from it. Bridges are numbered along the chain shown (N, C = ends). [ ]: non-standard residue; d: D form. The star is where a group is joined. ξ: configuration not given here. Phe(4-COOH) = N[C@@H](Cc1ccc(C(=O)O)cc1)C(=O)O; Bip = N[C@@H](Cc1ccc(-c2ccccc2)cc1)C(=O)O; Phe(3-Me) = Cc1cccc(C[C@H](N)C(=O)O)c1; hArg = N=C(N)NCCCC[C@H](N)C(=O)O; 4Pal = N[C@@H](Cc1ccncc1)C(=O)O; Cha = N[C@@H](CC1CCCCC1)C(=O)O; Ile(3ξ) = CCC(C)[C@H](N)C(=O)O; Thr(3ξ) = CC(O)[C@H](N)C(=O)O; Chg = N[C@H](C(=O)O)C1CCCCC1; dOrn = NCCC[C@@H](N)C(=O)O; Carboxymethyl = O=C(O)C*; NMeA = CN[C@@H](C)C(=O)O; Orn = NCCC[C@H](N)C(=O)O; Aun = NCCCCCCCCCCC(=O)O; Dab = NCC[C@H](N)C(=O)O; Dap = NC[C@H](N)C(=O)O; AEEA = NCCOCCOCC(=O)O

target: T1, PD-1/PD-L1 interaction (PE-labeled human PD-L1-Ig binding to Jurkat cell line over-expressing human PD-1) (Homo sapiens, UniProt Q15116); test: Jurkat-PD-1 Cell Binding High-Content Screening Assay (CBA); details: Jurkat-hPD-1 cells, PE-labeled PD-L1-Ig 20 nM final; read-out: Jurkat HPD1 PDL1 IC50
T1 construct: expressed in transfected cells; host or cells: Jurkat
Outline: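 Cells 8×10^3/well, DMEM + 10% FCS; cpd 2 h, 37 °C; PE–PD-L1-Ig 20 nM final, 1 h; PFA fix + Hoechst 33342, 3× dPBS wash; high-content imager.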

T1 sequence (Q15116 25-288): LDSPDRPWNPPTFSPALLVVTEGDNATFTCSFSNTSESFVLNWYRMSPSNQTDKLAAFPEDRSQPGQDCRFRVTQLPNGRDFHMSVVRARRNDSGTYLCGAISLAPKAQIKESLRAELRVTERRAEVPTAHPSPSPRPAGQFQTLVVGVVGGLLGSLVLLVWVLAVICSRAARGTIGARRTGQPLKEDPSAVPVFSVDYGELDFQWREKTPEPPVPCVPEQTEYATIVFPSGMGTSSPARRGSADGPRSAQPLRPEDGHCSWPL

Compared with CCC(C)[C@@H]1NC(=O)[C@H](Cc2ccc(-c3ccccc3)cc2)NC(=O)[C@H](CC(C)C)NC(=O)[C@H](Cc2c[nH]c3ccccc23)NC(=O)[C@H](CC(=O)O)NC(=O)[C@H](Cc2ccc(C(=O)O)cc2)NC(=O)[C@H](Cc2ccc(OCC(=O)O)cc2)NC(=O)CSC[C@@H](C(=O)N[C@@H](CC(N)=O)C(=O)NCCOCCOCC(=O)N[C@@H](CCN)C(=O)NCCCCCCCCCCC(=O)O)NC(=O)[C@H](CO)NC(=O)[C@H](C(C)C)NC(=O)[C@H](CC2CCCCC2)NC(=O)[C@H](CCN)NC(=O)[C@@H](CC(C)C)NC(=O)[C@H](C)N(C)C1=O (stereo partly drawn) [Example 2079] ({CH2CO}-Y(Carboxymethyl)[Phe(4-COOH)]DWL[Bip][Ile(3ξ)][NMeA][dL][Dab][Cha]VSCN[AEEA][Dab][Aun]-OH; thioether N-14), CCC(C)[C@@H]1NC(=O)[C@H](Cc2ccc(-c3ccccc3)cc2)NC(=O)[C@H](CC(C)C)NC(=O)[C@H](Cc2c[nH]c3ccccc23)NC(=O)[C@H](CC(=O)O)NC(=O)[C@H](Cc2ccc(OCC(=O)O)cc2)NC(=O)[C@H](Cc2ccncc2)NC(=O)CSC[C@@H](C(=O)N[C@@H](CCCN)C(=O)NCCOCCOCC(=O)NCCCCCCCCCCC(=O)O)NC(=O)[C@H](CO)NC(=O)[C@H](C(C)C)NC(=O)[C@H](CC2CCCCC2)NC(=O)[C@H](Cc2c[nH]cn2)NC(=O)[C@@H](CC(C)C)NC(=O)[C@H](C)N(C)C1=O (stereo partly drawn) [Example 2087] ({CH2CO}-[4Pal]Y(Carboxymethyl)DWL[Bip][Ile(3ξ)][NMeA][dL]H[Cha]VSC[Orn][AEEA][Aun]-OH; thioether N-14) is 4.5-fold higher in IC50: 11.3 nM for the first, 50.7 nM for the second. The first is the more potent here.

Compared with CCC(C)[C@@H]1NC(=O)[C@H](CC(C)C)NC(=O)[C@H](CCN)NC(=O)[C@@H](CC(C)C)NC(=O)[C@H](C)N(C)C(=O)[C@H](C(C)CC)NC(=O)[C@H](Cc2ccc(-c3ccccc3)cc2)NC(=O)[C@H](C(C)CC)NC(=O)[C@H](Cc2c[nH]c3ccccc23)NC(=O)[C@H](CC(=O)O)NC(=O)[C@H](Cc2ccc(OCC(=O)O)cc2)NC(=O)[C@H](C(C)O)NC(=O)CSC[C@@H](C(=O)N[C@H](CC(N)=O)C(=O)NCCOCCOCC(=O)NCCCCCCCCCCC(=O)O)NC(=O)[C@H](CO)NC1=O (stereo partly drawn) [Example 2080] ({CH2CO}-[Thr(3ξ)]Y(Carboxymethyl)DW[Ile(3ξ)][Bip][Ile(3ξ)][NMeA][dL][Dab]L[Ile(3ξ)]SC[dN][AEEA][Aun]-OH; thioether N-14), CCC(C)[C@@H]1NC(=O)[C@H](CC(C)C)NC(=O)[C@H](CCN)NC(=O)[C@@H](CC(C)C)NC(=O)[C@H](C)N(C)C(=O)[C@H](C(C)CC)NC(=O)[C@H](Cc2ccc(-c3ccccc3)cc2)NC(=O)[C@H](C(C)CC)NC(=O)[C@H](Cc2c[nH]c3ccccc23)NC(=O)[C@H](CC(=O)O)NC(=O)[C@H](Cc2ccc(OCC(=O)O)cc2)NC(=O)[C@H](C(C)O)NC(=O)CSC[C@@H](C(=O)N[C@@H](CN)C(=O)NCCOCCOCC(=O)NCCCCCCCCCCC(=O)O)NC(=O)[C@H](CO)NC1=O (stereo partly drawn) [Example 2081] ({CH2CO}-[Thr(3ξ)]Y(Carboxymethyl)DW[Ile(3ξ)][Bip][Ile(3ξ)][NMeA][dL][Dab]L[Ile(3ξ)]SC[Dap][AEEA][Aun]-OH; thioether N-14) is 1.9-fold higher in IC50: 110 nM for the first, 206 nM for the second. The first is the more potent here.

First: CCC(C)[C@@H]1NC(=O)[C@H](CC(C)C)NC(=O)[C@H](CCN)NC(=O)[C@@H](CC(C)C)NC(=O)[C@H](C)N(C)C(=O)[C@H](C(C)CC)NC(=O)[C@H](Cc2ccc(-c3ccccc3)cc2)NC(=O)[C@H](C(C)CC)NC(=O)[C@H](Cc2c[nH]c3ccccc23)NC(=O)[C@H](CC(=O)O)NC(=O)[C@H](Cc2ccc(OCC(=O)O)cc2)NC(=O)[C@H](C(C)O)NC(=O)CSC[C@@H](C(=O)N[C@H](CC(N)=O)C(=O)NCCOCCOCC(=O)N[C@@H](CCCN)C(=O)NCCCCCCCCCCC(=O)O)NC(=O)[C@H](CO)NC1=O (stereo partly drawn) [Example 2082] ({CH2CO}-[Thr(3ξ)]Y(Carboxymethyl)DW[Ile(3ξ)][Bip][Ile(3ξ)][NMeA][dL][Dab]L[Ile(3ξ)]SC[dN][AEEA][Orn][Aun]-OH; thioether N-14)
Second: CC(C)C[C@H]1NC(=O)[C@H](C)N(C)C(=O)[C@H](C(C)C)NC(=O)[C@H](Cc2ccc(-c3ccccc3)cc2)NC(=O)[C@H](C(C)C)NC(=O)[C@H](Cc2c[nH]c3ccccc23)NC(=O)[C@H](CC(=O)O)NC(=O)[C@H](Cc2ccc(OCC(=O)O)cc2)NC(=O)[C@H](CN)NC(=O)CSC[C@@H](C(=O)NCC(=O)NCCOCCOCC(=O)N[C@@H](CCCCN)C(=O)NCCCCCCCCCCC(=O)O)NC(=O)[C@H](CO)NC(=O)[C@H](C(C)C)NC(=O)[C@H](CC2CCCCC2)NC(=O)[C@H](CCN)NC1=O [Example 2085] ({CH2CO}-[Dap]Y(Carboxymethyl)DWV[Bip]V[NMeA][dL][Dab][Cha]VSCG[AEEA]K[Aun]-OH; thioether N-14)
The IC50 of the first is 17-fold higher: 169 nM for the first, 9.8 nM for the second.

CC(C)C[C@H]1NC(=O)[C@H](C)N(C)C(=O)[C@H](C(C)C)NC(=O)[C@H](Cc2ccc(-c3ccccc3)cc2)NC(=O)[C@H](C(C)C)NC(=O)[C@H](Cc2c[nH]c3ccccc23)NC(=O)[C@H](CC(=O)O)NC(=O)[C@H](Cc2ccc(OCC(=O)O)cc2)NC(=O)[C@H](CCCCNC(=N)N)NC(=O)CSC[C@@H](C(=O)NCC(=O)NCCOCCOCC(=O)N[C@@H](CCCN)C(=O)NCCCCCCCCCCC(=O)O)NC(=O)[C@H](CO)NC(=O)[C@H](C(C)C)NC(=O)[C@H](CC2CCCCC2)NC(=O)[C@H](CCN)NC1=O [Example 2084] ({CH2CO}-[hArg]Y(Carboxymethyl)DWV[Bip]V[NMeA][dL][Dab][Cha]VSCG[AEEA][Orn][Aun]-OH; thioether N-14) and CC(C)C[C@H]1NC(=O)[C@H](C)N(C)C(=O)[C@H](C(C)C)NC(=O)[C@H](Cc2ccc(-c3ccccc3)cc2)NC(=O)[C@H](C(C)C)NC(=O)[C@H](Cc2c[nH]c3ccccc23)NC(=O)[C@H](CC(=O)O)NC(=O)[C@H](Cc2ccc(OCC(=O)O)cc2)NC(=O)[C@H](CCCCNC(=N)N)NC(=O)CSC[C@@H](C(=O)N[C@@H](CCCCN)C(=O)NCCOCCOCC(=O)NCCCCCCCCCCC(=O)O)NC(=O)[C@H](CO)NC(=O)[C@H](C(C)C)NC(=O)[C@H](CC2CCCCC2)NC(=O)[C@H](CCN)NC1=O [Example 2089] ({CH2CO}-[hArg]Y(Carboxymethyl)DWV[Bip]V[NMeA][dL][Dab][Cha]VSCK[AEEA][Aun]-OH; thioether N-14) are within 1.5-fold of each other in IC50: 9.5 nM for the first, 12.3 nM for the second.

CCC(C)[C@@H]1NC(=O)[C@H](Cc2ccc(-c3ccccc3)cc2)NC(=O)[C@H](CC(C)C)NC(=O)[C@H](Cc2c[nH]c3ccccc23)NC(=O)[C@H](CC(=O)O)NC(=O)[C@H](Cc2ccc(O)cc2)NC(=O)[C@H](Cc2ccncc2)NC(=O)CSC[C@@H](C(=O)N[C@H](CCCN)C(=O)NCCOCCOCC(=O)NCCCCCCCCCCC(=O)O)NC(=O)[C@H](CO)NC(=O)[C@H](C(C)C)NC(=O)[C@H](CC2CCCCC2)NC(=O)[C@H](CCN)NC(=O)[C@@H](CC(C)C)NC(=O)[C@H](C)N(C)C1=O (stereo partly drawn) [Example 2086] ({CH2CO}-[4Pal]YDWL[Bip][Ile(3ξ)][NMeA][dL][Dab][Cha]VSC[dOrn][AEEA][Aun]-OH; thioether N-14) and CCC(C)[C@@H]1NC(=O)[C@H](Cc2ccc(-c3ccccc3)cc2)NC(=O)[C@H](CC(C)C)NC(=O)[C@H](Cc2cccc(C)c2)NC(=O)[C@H](CC(=O)O)NC(=O)[C@H](Cc2ccc(OCC(=O)O)cc2)NC(=O)[C@H](Cc2ccncc2)NC(=O)CSC[C@@H](C(=O)N[C@@H](CCCN)C(=O)NCCOCCOCC(=O)NCCCCCCCCCCC(=O)O)NC(=O)[C@H](C(C)O)NC(=O)[C@H](C(C)C)NC(=O)[C@H](CC2CCCCC2)NC(=O)[C@H](CCN)NC(=O)[C@@H](CC(C)C)NC(=O)[C@H](C)N(C)C1=O (stereo partly drawn) [Example 2088] ({CH2CO}-[4Pal]Y(Carboxymethyl)D[Phe(3-Me)]L[Bip][Ile(3ξ)][NMeA][dL][Dab][Cha]V[Thr(3ξ)]C[Orn][AEEA][Aun]-OH; thioether N-14) are within 1.5-fold of each other in IC50: 18.5 nM for the first, 12.8 nM for the second.

First: CC(C)C[C@H]1NC(=O)[C@H](C)N(C)C(=O)[C@H](C(C)C)NC(=O)[C@H](Cc2ccc(-c3ccccc3)cc2)NC(=O)[C@H](C2CCCCC2)NC(=O)[C@H](Cc2c[nH]c3ccccc23)NC(=O)[C@H](CC(=O)O)NC(=O)[C@H](Cc2ccc(OCC(=O)O)cc2)NC(=O)[C@H](Cc2ccncc2)NC(=O)CSC[C@@H](C(=O)N[C@@H](CCCCN)C(=O)NCCOCCOCC(=O)NCCCCCCCCCCC(=O)O)NC(=O)[C@H](CO)NC(=O)[C@H](C(C)C)NC(=O)[C@H](CC2CCCCC2)NC(=O)[C@H](CC(=O)O)NC1=O [Example 2090] ({CH2CO}-[4Pal]Y(Carboxymethyl)DW[Chg][Bip]V[NMeA][dL]D[Cha]VSCK[AEEA][Aun]-OH; thioether N-14)
Second: CC(C)C[C@H]1NC(=O)[C@H](C)N(C)C(=O)[C@H](C(C)C)NC(=O)[C@H](Cc2ccc(-c3ccccc3)cc2)NC(=O)[C@H](C2CCCCC2)NC(=O)[C@H](Cc2c[nH]c3ccccc23)NC(=O)[C@H](CC(=O)O)NC(=O)[C@H](Cc2ccncc2)NC(=O)[C@H](Cc2ccc(OCC(=O)O)cc2)NC(=O)CSC[C@@H](C(=O)N[C@@H](CCCCN)C(=O)NCCOCCOCC(=O)NCCCCCCCCCCC(=O)O)NC(=O)[C@H](CO)NC(=O)[C@H](C(C)C)NC(=O)[C@H](CC2CCCCC2)NC(=O)[C@H](CC(=O)O)NC1=O [Example 2092] ({CH2CO}-Y(Carboxymethyl)[4Pal]DW[Chg][Bip]V[NMeA][dL]D[Cha]VSCK[AEEA][Aun]-OH; thioether N-14)
The IC50 of the first is 1.5-fold lower: 48.2 nM for the first, 72.8 nM for the second.

With CC(C)C[C@H]1NC(=O)[C@H](C)N(C)C(=O)[C@H](C(C)C)NC(=O)[C@H](Cc2ccc(-c3ccccc3)cc2)NC(=O)[C@H](C2CCCCC2)NC(=O)[C@H](Cc2c[nH]c3ccccc23)NC(=O)[C@H](CC(=O)O)NC(=O)[C@H](CCCCNC(=N)N)NC(=O)[C@H](Cc2ccc(OCC(=O)O)cc2)NC(=O)CSC[C@@H](C(=O)N[C@@H](CCCCN)C(=O)NCCOCCOCC(=O)NCCCCCCCCCCC(=O)O)NC(=O)[C@H](CO)NC(=O)[C@H](C(C)C)NC(=O)[C@H](CC2CCCCC2)NC(=O)[C@H](CC(=O)O)NC1=O [Example 2093] ({CH2CO}-Y(Carboxymethyl)[hArg]DW[Chg][Bip]V[NMeA][dL]D[Cha]VSCK[AEEA][Aun]-OH; thioether N-14) the IC50 was 21 nM.
